According to ChEMBL document CHEMBL1142617, “Mycalamides C and D, cytotoxic compounds from the marine sponge Stylinos n. species” (J Nat Prod, 2000):
≈ marks a conversion by molar mass, not a printed value.

Tested on: P388
Experiment: Cytotoxicity against mouse P388 cells
Type: functional, cell-based

Row | Structure (SMILES) | IC50
1 | C=C1C[C@](OC)([C@H](O)C(=O)N[C@@H]2OCO[C@H]3[C@@H]2O[C@H](CO)C(C)(C)[C@@H]3OC)O[C@H](C)[C@@H]1C [THEOPEDERIN E] | 0.0009 µg/mL (≈ 0.00196 µM)
2 | C=C1C[C@](OC)([C@H](O)C(=O)N[C@H]2OCO[C@H]3[C@@H]2O[C@H](C[C@H](O)CO)C(C)(C)[C@@H]3O)O[C@H](C)[C@@H]1C [MYCALAMIDE D] | 0.035 µg/mL (≈ 0.0715 µM)
3 | C=C1C[C@](OC)([C@H](O)C(=O)NC[C@H]2O[C@H](CO)C(C)(C)[C@H](O)[C@H]2O)O[C@H](C)[C@@H]1C [MYCALAMIDE C] | 0.095 µg/mL (≈ 0.228 µM)
4 | C=C1C[C@](OC)([C@H](O)C(=O)N[C@H]2OCO[C@H]3[C@@H]2O[C@H](C[C@H](O)CO)C(C)(C)[C@@H]3OC)O[C@H](C)[C@@H]1C [MYCALAMIDE A] | 0.0011 µg/mL (≈ 0.00218 µM)
